Measurements from patent US11795177B2, “Substituted quinoline analogs as aldehyde dehydrogenase 1A1 (ALDH1A1) inhibitors” (THE UNITED STATES OF AMERICA, AS REPRESENTED BY THE …, priority 2017, dated 2023).
Where a name gives a salt, the structure may show the parent alone.

What was measured:
[1] = system: MIA PaCa-2 cells; experiment: MIA PaCa2 cell-based assay (1,536-well high-content imaging ALDEFLUOR assay); set-up: species or system human; settings: Homo sapiens, 0.5 h, ALDEFLUOR BAAA substrate 500 nM, 30 minutes
Procedure, shortened: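 MIA PaCa-2 cells (1,000/well), plated overnight, given BAAA substrate (500 nM) plus Hoechst 33342 (0.5 nM), then compound (16-point, 1.4 nM–47.8 μM final; 0.5% DMSO). After 30 min at 37° C, ALDH activity imaged by high-content microscopy as BAA-retaining (FITC) cells versus Hoechst-stained nuclei.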

[2] = molecular target: T1, ALDH1A1 enzyme (Homo sapiens, UniProt P00352); experiment: ALDH1A1 enzymatic assay (in vitro); assay type: biochemical; settings: ALDH1A1 enzyme 20 nM, NAD+ 1 mM, propionaldehyde 80 μM; read-out: ALDH1A1 IC50
T1 sequence (P00352 1-501): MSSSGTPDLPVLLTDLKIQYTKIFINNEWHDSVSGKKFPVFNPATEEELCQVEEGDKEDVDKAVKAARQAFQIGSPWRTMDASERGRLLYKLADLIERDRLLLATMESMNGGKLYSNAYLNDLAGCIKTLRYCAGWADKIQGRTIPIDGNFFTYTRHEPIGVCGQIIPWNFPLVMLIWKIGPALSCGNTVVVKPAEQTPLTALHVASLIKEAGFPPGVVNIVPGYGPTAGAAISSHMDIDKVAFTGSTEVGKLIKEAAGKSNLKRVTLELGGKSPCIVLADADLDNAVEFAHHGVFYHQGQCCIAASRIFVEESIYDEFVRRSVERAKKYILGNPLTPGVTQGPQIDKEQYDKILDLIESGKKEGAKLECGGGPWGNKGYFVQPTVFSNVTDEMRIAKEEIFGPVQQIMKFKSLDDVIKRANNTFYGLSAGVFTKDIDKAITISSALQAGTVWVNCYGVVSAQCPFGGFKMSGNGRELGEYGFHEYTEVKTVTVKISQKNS
Procedure, shortened: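 ALDH1A1 (20 nM final) in 100 mM HEPES pH 7.5, 0.01% Tween 20 was preincubated 15 min at RT with compound (968 pM–57.2 μM final), then started with 1 mM NAD+ and 80 μM propionaldehyde. NADH fluorescence (ex 340/em 450 nm) followed kinetically for 10 min; change normalized to no-inhibitor and no-enzyme controls for percent inhibition and curve fitting.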

SMILES	IC50 [1]	IC50 [2]
C[C@@H]1CN(C(=O)c2cnc3ccc(F)cc3c2N2CCC3(CC2)OCCO3)C[C@H](C)O1 [Example 55, ((2S*,6R*)-2,6-dimethylmorpholino)(6-fluoro-4-(1,4-dioxa-8-azaspiro[4.5]decan-8-yl)quinolin-3-yl)methanone]	> 10000 nM	1000 to 10000 nM
CC1(C#N)CCN(c2c(C(=O)N3CCN(S(=O)(=O)N4CCCC4)CC3)cnc3c(F)cc(F)cc23)CC1 [Example 168, 1-(6,8-difluoro-3-(4-(pyrrolidin-1-ylsulfonyl)piperazine-1-carbonyl)quinolin-4-yl)-4-methylpiperidine-4-carbonitrile]	> 10000 nM	1000 to 10000 nM
CCS(=O)(=O)N1CCN(C(=O)c2cnc3sccc3c2N2CCC(C)(C#N)CC2)CC1 [Example 218, 1-(5-(4-(ethylsulfonyl)piperazine-1-carbonyl)thieno[2,3-b]pyridin-4-yl)-4-methylpiperidine-4-carbonitrile]	1000 to 10000 nM	< 500 nM
O=C(c1cnc2ccc(F)cc2c1N1CCC2(CC1)OCCO2)N1CCCN(C(=O)C2CC2)CC1 [Example 69, (4-(cyclopropanecarbonyl)-1,4-diazepan-1-yl)(6-fluoro-4-(1,4-dioxa-8-azaspiro[4.5]decan-8-yl)quinolin-3-yl)methanone]	> 10000 nM	< 500 nM
CC1(C#N)CCN(c2c(C(=O)N3CCN(C(=O)C4CC4)CC3)cnc3[nH]ncc23)CC1 [Example 237, 1-(5-(4-(cyclopropanecarbonyl)piperazine-1-carbonyl)-1H-pyrazolo[3,4-b]pyridin-4-yl)-4-methylpiperidine-4-carbonitrile]	> 10000 nM	1000 to 10000 nM
COc1ccc2ncc(C(=O)N3CCN(C(C)C)CC3)c(N3CCC4(CC3)OCCO4)c2c1 [Example 8, (4-isopropylpiperazin-1-yl)(6-methoxy-4-(1,4-dioxa-8-azaspiro[4.5]decan-8-yl)quinolin-3-yl)methanone, TFA]	> 10000 nM	1000 to 10000 nM

Results, then the compound that gave them:

IC50 [1]	IC50 [2]	SMILES
1000 to 10000 nM	< 500 nM	CCNC(=O)N1CCN(C(=O)c2cnc3c(F)c(OC)c(F)cc3c2N2CCC(C)(C#N)CC2)CC1 [Example 147, 4-(4-(4-cyano-4-methylpiperidin-1-yl)-6,8-difluoro-7-methoxyquinoline-3-carbonyl)-N-ethylpiperazine-1-carboxamide]
1000 to 10000 nM	< 500 nM	CC1(C#N)CCN(c2c(C(=O)N3CCC(C(=O)C4CC4)CC3)cnc3cc(F)c(F)cc23)CC1 [Example 196, 1-(3-(4-(cyclopropanecareonyl)piperidine-1-carbonyl)-6,7-difluoroquinolin-4-yl)-4-methylpiperidine-4-carbonitrile]
1000 to 10000 nM	< 500 nM	COc1c(F)cc2c(N3CCC4(CC3)OCCO4)c(C(=O)N3CCN(C(=O)C4CC4)CC3)cnc2c1F [Example 123, (4-(cyclopropanecarbonyl)piperazin-1-yl)(6,8-difluoro-7-methoxy-4-(1,4-dioxa-8-azaspiro[4.5]decan-8-yl)quinolin-3-yl)methanone]
< 500 nM	< 500 nM	CS(=O)(=O)N1CCN(C(=O)c2ccc3ccccc3c2-c2ccc(C3(C#N)CC3)cc2)CC1 [Example 300, 1-(4-(2-(4-(methylsulfonyl)piperazine-1-carbonyl)naphthalen-1-yl)phenyl)cyclopropanecarbonitrile]
500 to 1000 nM	< 500 nM	CN(C)C(=O)N1CCN(C(=O)c2cnc3ccc(F)cc3c2N2CCC3(CC2)OCCO3)CC1 [Example 179, 4-(6-fluoro-4-(1,4-dioxa-8-azaspiro[4.5]decan-8-yl)quinoline-3-carbonyl)-N,N-dimethylpiperazine-1-carboxamide]
< 500 nM	< 500 nM	N#CC1(c2ccccc2)CCN(c2c(C(=O)N3CC4(CC(O)C4)C3)cnc3ccc(F)cc23)CC1 [Cpd. 329, 1-(6-fluoro-3-(6-hydroxy-2-azaspiro[3.3]heptane-2-carbonyl)quinolin-4-yl)-4-phenylpiperidine-4-carbonitrile]
